The values that follow come from US4547509A, “5,6,7-Quinoline carbanilates and method of treating ischemic heart disease therewith” (USV Pharmaceutical Corp., priority 1983, dated 1985).

In assay [1] the test system is rat adipocyte lipolysis. In words: Rat Adipocyte Assay (epinephrine-stimulated lipolysis, glycerol release). It is filed as cell-based. Particulars: epinephrine 3 μM plus methylisobutylxanthine 10 μM, 1 hour at 37° C.; for inhibition at 200 µM: 200 μM compound, read-out: Adipocyte % Inhib. at 200 μM; for inhibition at 30 µM: 30 μM compound, read-out: Adipocyte % Inhib. at 30 μM; for IC50: read-out: Adipocyte I50. How it is done: Abdominal fat pads were removed from male rats weighing 200-250 grams and placed in Krebs-bicarbonate buffer gassed with 95% O2 /5% CO2. The fat pads were digested with collagenase for 1 hour at 37° C., washed twice with Krebs-bicarbonate buffer and distributed among a set of 20 ml plastic counting vials. Two such vials received only buffer and cells (4 ml) but no angonists or antagonists. The remaining vials received epinephrine (3 μM) plus the phosphodiesterase inhibitor methylisobutylxanthine (10 μM). Test compounds were dissolved in DMSO or water to a concentration of 20 mM or 40 μl was added to the buffer plus cells in the counting vials. The final compound concentration for routine screening was 200 μM (final concentration of DMSO=1%).
The cells were incubated for 1 hour at 37° C. under 95% O2 /5% CO2 atmosphere. The incubation was stopped by placing the vials in crushed ice. The cells and medium were transferred to test tubes, centrifuged and the cell layer removed by aspiration. The aqueous phase was assayed for glycerol using the enzyme glycerol dehydrogenase.
The glycerol dehydrogenase assay for glycerol depends on the enzyme catalyzed conversion of glycerol to glyceraldehyde and NAD to NADH. The assay can detect as little as 5-10 nanomoles of glycerol. The aqueous phase, following removal of cells, usually contained about 50 to 80 nanomoles of glycerol per 300 μl of assayed sample if no inhibitory activity was present. Samples from the control tubes (no agonist) usually contained 0-5 nanomoles of glycerol per 300 μl of sample.

Assay [2] relates to Canine cardiac lipases. In words: Myocardial Lipase Assay. It is filed as biochemical. Particulars: 100 μM compound, 3.0% DMSO, triolein emulsion, pH 6.8, tested in duplicate. How it is done: All compounds were dissolved in DMSO (final concentration 3.0%) and tested in duplicate at a concentration of 100 μm. Canine cardiac lipases were obtained by extracting washed heart membranes with buffer plus heparin and a small amount of Triton X-100 detergent. Because these enzymes are only active at an oil-water interface, the enzyme reaction is run in an oil-water emulsion that contains triolein substrate, Tris buffer (50 mM, pH 6.8) and a small amount of bovine serum albumin (0.5%) added to stabilize the emulsion. A small amount of tritiated triolein was added to the unlabelled triolein substrate. Tritium-labelled oleic acid released by the lipases was extracted into hexane, separated from unreacted triolein and counted in a scintillation counter. Inhibitory agents reduce the amount of radioactivity appearing in the free fatty acid fraction isolated in the extraction procedure.

Assay [3] addresses Canine cardiac lipases. The assay is described as follows: Myocardial Lipase Assay. Particulars: triolein emulsion, pH 6.8; read-out: Lipase I50. It is filed as biochemical.

Turning to `CCOC(=O)c1ccc(NC(=O)Oc2ccc3cccnc3c2)cc1` [Example 8, 7-quinolyl-4-carbethoxy carbanilate], the inhibition at 200 µM in assay [1] is 18%. The “Lipase % Inh. at 100 μM” value in assay [2] turned out to be 46%.

Regarding `O=C(Nc1ccccc1C(F)(F)F)Oc1ccc2cccnc2c1` [Example 11, 7-quinolyl-2-trifluoromethyl carbanilate], the “Lipase % Inh. at 100 μM” value in assay [2] is listed as 12%.

For `O=C(Nc1ccccc1Cl)Oc1ccc2cccnc2c1` [Example 9, 7-quinolyl-2-chloro carbanilate], in assay [2], the “Lipase % Inh. at 100 μM” value was 6%.

Turning to `Cc1ccccc1NC(=O)Oc1ccc2cccnc2c1` [Example 10, 7-quinolyl-2-methyl carbanilate], the inhibition at 200 µM in assay [1] turned out to be 20%. Moreover, the “Lipase % Inh. at 100 μM” value in assay [2] turned out to be 45%.

Regarding `COc1ccc(CCNC(=O)Oc2ccc3cccnc3c2)cc1` [Example 12, 7-quinolyl-4-methoxy phenethyl carbamate], the inhibition at 100 µM in assay [1] (100 μM compound, read-out: Adipocyte % Inhib. at 100 μM) was 84%. For the same molecule, the “Lipase % Inh. at 100 μM” value in assay [2] is reported as 97%.

For `COc1ccccc1NC(=O)Oc1cccc2ncccc12` [Example 6, 5-quinolyl-2-methoxy carbanilate], the inhibition at 200 µM in assay [1] was 31%. For the same molecule, in assay [3], the IC50 stood at 48 µM.

For `COc1ccc(NC(=O)Oc2ccc3cccnc3c2)cc1` [Example 1], the inhibition at 30 µM in assay [1] was 0%. Further, the “Lipase % Inh. at 100 μM” value in assay [2] amounted to 60%.

Regarding `COc1ccc(NC(=O)Oc2ccc3ncccc3c2)cc1` [Example 2, 6-quinolyl-4-methoxy carbanilate], the inhibition at 30 µM in assay [1] amounted to 8%. In assay [2], the “Lipase % Inh. at 100 μM” value came to 64%.

`COc1ccc(NC(=O)Oc2cccc3ncccc23)cc1` [Example 3, 5-quinolyl-4-methoxy carbanilate]: the inhibition at 30 µM in assay [1] came out at 1%. In assay [2], the “Lipase % Inh. at 100 μM” value is given as 63%.

Consider `COc1ccccc1NC(=O)Oc1ccc2cccnc2c1` [Example 4, 7-quinolyl-2-methoxy carbanilate], for which the IC50 in assay [1] was found to be 80 µM; in assay [3], 48 µM.

On to `COc1cccc(NC(=O)Oc2ccc3cccnc3c2)c1` [Example 7, 7-quinolyl-3-methoxy carbanilate], for which the inhibition at 200 µM in assay [1] was 25%. In addition, the “Lipase % Inh. at 100 μM” value in assay [2] was 52%.

`COc1ccccc1NC(=O)Oc1ccc2ncccc2c1` [Example 5, 6-quinolyl-2-methoxy carbanilate]: the IC50 in assay [1] is 30 µM; in assay [3] it was 42 µM.
